Results: patent US10335445B2, “Compositions and methods of antiallergic phorbol ester and phorbol derivatives as the main active ingredients from the seeds of aquilaria malaccensis” (WE-WIN APPLIED BIO-TECH CO., LTD., priority 2016, dated 2019)

How the values were obtained:
RBL-2H3 cells [1] = experiment: antigen (DNP-BSA)-induced degranulation β-hexosaminidase release assay; assay type: cell-based; conditions: Rattus norvegicus
Experimental: (§1) Cell culture: The mucosal mast cell-derived rat basophilic leukemia (RBL-2H3) cell line was purchased from the Bioresource Collection and Research Center (Hsin-Chu, Taiwan). Cells were grown in DMEM medium supplemented with 10% FBS and 100 U/mL penicillin plus 100 μg/mL streptomycin. Cells were cultured in 10 cm cell culture dishes at 37° C. in a humidified chamber with 5% CO2 in air.
(§2) Degranulation β-hexosaminidase assay induced by A23187 or antigen: The degree of A23187- and antigen-induced degranulation in RBL-2H3 cells was determined by a β-hexosaminidase release assay as described previously (Chen et al., J. Nat. Prod., 72, 950-953, 2009; Matsuda et al., Bioorg. Med. Chem., 12, 5891-5898, 2004) with following modifications. RBL-2H3 cells were seeded in a 96-well plate (2×10^4 cells/well) for A23187-induced and in 48-well plate (3×10^4 cells/well) for antigen-induced experiment. Cells were treated with various concentrations of the samples for 20 h. Dexamethasone (10 nM) was used as a positive control. The cells for the antigen-induced experiment were first sensitized with anti-DNP IgE (5 μg/mL) for at least 2 h. […] Absorbance was measured at 405 nm on a microplate reader (Multiskan Ascent, Thermo Scientific). The inhibition percentage of β-hexosaminidase release was calculated as the percentage of control value (untreated stimulated cells). […]

RBL-2H3 cells [2] = experiment: A23187-induced degranulation β-hexosaminidase release assay; assay type: cell-based; conditions: Rattus norvegicus, A23187 1 μM
Experimental: as §1, §2

CCCCCCC/C=C/C=C/C=C\C(=O)O[C@@H]1[C@@H](C)[C@@]2(O)[C@@H](C=C(CO)C[C@]3(O)C(=O)C(C)=C[C@@H]23)[C@@H]2C(C)(C)[C@]12OC(C)=O [phorbol ester I, 12-O-(2Z,4E,6E)-tetradeca-2,4,6-trienoylphorbol-13-acetate]
IC50 (RBL-2H3 cells [1]): 11 nM
IC50 (RBL-2H3 cells [2]): 1.7 nM
